Like-named read-outs stand apart in the source and are kept apart here.
Key:
[1] = system: acutely dissociated and purified rat OPCs; assay: Acute OL differentiation assay (MBP expression/cell, immunofluorescent image quantification); type: cell-based; conditions: sheet "All OLga data"; for activation at 2 µM / activation at 10 µM / activation at 0.4 µM / activation at 0.08 µM: Rattus norvegicus
Summary of the method: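 This acute differentiation assay used purified rat OPCs from postnatal day 6–7 pups, seeded into PDL/laminin-coated 96-well plates in differentiation medium lacking PDGF and FGF. Compounds were applied in quadruplicate after a 1–2 h preincubation at 37 °C, 10 % CO2, with 0.1 % DMSO negative and 40 ng/ml T3 positive controls in eight wells. After fixation on DIV4, anti-MBP immunofluorescence images yielded MBP expression/cell.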

expanded OPCs = assay: cells; conditions: for viability at 0.1 µM / viability at 1 µM / viability at 10 µM: Rattus norvegicus, 72 h
Summary of the method: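 Toxicity screen: compounds added at 0.1, 1 and 10 µM to PDGF-AA-expanded OPCs in 96-well plates, 3-day incubation at 37 °C, 10% CO2, then alamarBlue 1:10 for 4 h with fluorescence readout. Results set screening doses of 10/2, 2/0.4 or 0.4/0.08 µM.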

[2] = test compound at 2 uM, NCC library screen, relative to quetiapine
[3] = alamarBlue viability, NCC library compound at 0.1 µM, sheet "All Tox data"
[4] = alamarBlue viability, NCC library compound at 1 µM, sheet "All Tox data"
[5] = alamarBlue viability, NCC library compound at 10 µM, sheet "All Tox data"
[6] = test compound at 2 uM, NCC library screen, relative to quetiapine, read-out: 2 uM (% Quet)
[7] = test compound at 10 uM, NCC library screen, relative to quetiapine, read-out: 10 uM (% Quet)
[8] = read-out: 0.1 µM (% DMSO), alamarBlue viability, NCC library compound at 0.1 µM, sheet "All Tox data"
[9] = read-out: 1 µM (% DMSO), alamarBlue viability, NCC library compound at 1 µM, sheet "All Tox data"
[10] = read-out: 10 µM (% DMSO), alamarBlue viability, NCC library compound at 10 µM, sheet "All Tox data"
[11] = alamarBlue viability of expanded OPCs, compound at 0.1 µM, relative to DMSO control
[12] = alamarBlue viability of expanded OPCs, compound at 1 µM, relative to DMSO control
[13] = alamarBlue viability of expanded OPCs, compound at 10 µM, relative to DMSO control
[14] = 2 uM test compound, relative to quetiapine, read-out: OL differentiation, 2 uM (% Quet)
[15] = 10 uM test compound, relative to quetiapine, read-out: OL differentiation, 10 uM (% Quet)
[16] = read-out: 0.1 µM (% DMSO), alamarBlue viability of expanded OPCs, compound at 0.1 µM, sheet All Tox data
[17] = read-out: 1 µM (% DMSO), alamarBlue viability of expanded OPCs, compound at 1 µM, sheet All Tox data
[18] = read-out: 10 µM (% DMSO), alamarBlue viability of expanded OPCs, compound at 10 µM, sheet All Tox data
[19] = test compound at 0.4 uM, NCC library screen, relative to quetiapine, read-out: 0.4 uM (% Quet)
[20] = 0.4 uM test compound, relative to quetiapine, read-out: OL differentiation, 0.4 uM (% Quet)
[21] = test compound at 0.08 uM, NCC library screen, relative to quetiapine, read-out: 0.08 uM (% Quet)

CO[C@H]1O[C@@H]2O[C@@]3(C)CC[C@H]4[C@H](C)CC[C@@H]([C@H]1C)[C@@]24OO3 [Artemethe]
2 uM (% Quet) [1, 2]: -5.4 % Quet
10 uM (% Quet) ([1]; test compound at 10 uM, NCC library screen, relative to quetiapine): -21.6 % Quet
0.1 µM (% DMSO) (expanded OPCs; [3]): 81.3 % DMSO
1 µM (% DMSO) (expanded OPCs; [4]): 76.5 % DMSO
10 µM (% DMSO) (expanded OPCs; [5]): 77.8 % DMSO

O=[N+]([O-])c1cccc2cn[nH]c12 [7-Nitroindazole]
activation at 2 µM [1, 6]: -7.1%
activation at 10 µM [1, 7]: 5.7%
viability at 0.1 µM (expanded OPCs; [8]): 84.2%
viability at 1 µM (expanded OPCs; [9]): 88.9%
viability at 10 µM (expanded OPCs; [10]): 89.1%

CN(C)c1ccc(O)c2c1C[C@H]1C[C@H]3[C@H](N(C)C)C(O)=C(C(N)=O)C(=O)[C@@]3(O)C(O)=C1C2=O [Minocycline]
activation at 2 µM [1, 6]: 10.9%
activation at 10 µM [1, 7]: -13.3%
0.1 µM (% DMSO) (expanded OPCs; [11]): 90.1 % DMSO
1 µM (% DMSO) (expanded OPCs; [12]): 90.9 % DMSO
10 µM (% DMSO) (expanded OPCs; [13]): 83.5 % DMSO

COc1cc(N)c(Cl)cc1C(=O)NC1CCN(CCCOc2ccc(F)cc2)CC1OC (stereo not drawn) [Cisapride]
activation at 2 µM [1, 14]: 11.3%
activation at 10 µM [1, 15]: 25.5%
viability at 0.1 µM (expanded OPCs; [16]): 80.4%
viability at 1 µM (expanded OPCs; [17]): 89%
viability at 10 µM (expanded OPCs; [18]): 73.6%

O=C(O[C@H]1[C@H](Oc2ccccc2COC(=O)C2(O)C=CCCC2=O)O[C@H](CO)[C@@H](O)[C@@H]1O)c1ccccc1 (stereo partly drawn) [Tremulacin]
activation at 0.4 µM [1, 19]: -46.7%
activation at 2 µM [1, 6]: -176%
viability at 0.1 µM (expanded OPCs; [8]): 86.6%
viability at 1 µM (expanded OPCs; [9]): 85.4%
viability at 10 µM (expanded OPCs; [10]): 20.7%

CC(C)[C@]12O[C@H]1[C@@H]1O[C@]13[C@]1(O[C@H]1C[C@H]1C4=C(CC[C@@]13C)C(=O)OC4)[C@@H]2O [Triptolide]
activation at 0.08 µM ([1]; 0.08 uM test compound, relative to quetiapine, read-out: OL differentiation, 0.08 uM (% Quet)): 3.9%
activation at 0.4 µM [1, 20]: -23.3%
viability at 0.1 µM (expanded OPCs; [16]): 73.9%
viability at 1 µM (expanded OPCs; [17]): 13.2%
viability at 10 µM (expanded OPCs; [18]): 13.7%

NC(N)=Nc1nc(CSCCC(N)=NS(N)(=O)=O)cs1 [Famotidine]
activation at 2 µM [1, 14]: -2.2%
activation at 10 µM [1, 15]: 17.8%
viability at 0.1 µM (expanded OPCs; [16]): 92.3%
viability at 1 µM (expanded OPCs; [17]): 96.4%
viability at 10 µM (expanded OPCs; [18]): 102%

CN(C)CCOC(C)(c1ccccc1)c1ccccn1 (stereo not drawn) [Doxylamine]
activation at 2 µM [1, 14]: -9.7%
activation at 10 µM [1, 15]: 0.7%
viability at 0.1 µM (expanded OPCs; [8]): 96%
viability at 1 µM (expanded OPCs; [9]): 86.6%
viability at 10 µM (expanded OPCs; [10]): 75%

CO[C@H]1/C=C/O[C@@]2(C)Oc3c(C)c(O)c4c(O)c(c(/C=N/N5CCN(C)CC5)c(O)c4c3C2=O)NC(=O)/C(C)=C\C=C\[C@H](C)[C@H](O)[C@@H](C)[C@@H](O)[C@@H](C)[C@H](OC(C)=O)[C@@H]1C [Rifampicin]
activation at 2 µM [1, 6]: -69.7%
activation at 10 µM [1, 7]: -188%
0.1 µM (% DMSO) (expanded OPCs; [11]): 91.7 % DMSO
1 µM (% DMSO) (expanded OPCs; [12]): 85.6 % DMSO
10 µM (% DMSO) (expanded OPCs; [13]): 62.3 % DMSO

CCN1CCC[C@H]1CNC(=O)c1c(O)c(Cl)cc(Cl)c1OC [Raclopride]
activation at 2 µM [1, 14]: 12.4%
activation at 10 µM [1, 15]: 43.4%
viability at 0.1 µM (expanded OPCs; [16]): 93.2%
viability at 1 µM (expanded OPCs; [17]): 92.8%
viability at 10 µM (expanded OPCs; [18]): 89.9%

Cc1cn([C@H]2C[C@H](N=[N+]=[N-])[C@@H](CO)O2)c(=O)[nH]c1=O [Zidovudine]
activation at 2 µM ([1]; test compound at 2 uM, MBP expression relative to quetiapine, NCC library screen, read-out: 2 uM (% Quet)): -29.4%
activation at 10 µM ([1]; test compound at 10 uM, MBP expression relative to quetiapine, NCC library screen, read-out: 10 uM (% Quet)): -41.2%
0.1 µM (% DMSO) (expanded OPCs; [11]): 89.6 % DMSO
1 µM (% DMSO) (expanded OPCs; [12]): 85.7 % DMSO
10 µM (% DMSO) (expanded OPCs; [13]): 83.9 % DMSO

CSc1ccc2c(c1)N(CCC1CCCCN1C)c1ccccc1S2 (stereo not drawn) [Thioridazine]
activation at 0.08 µM [1, 21]: -4.7%
activation at 0.4 µM [1, 19]: -158%
viability at 0.1 µM (expanded OPCs; [8]): 53.8%
viability at 1 µM (expanded OPCs; [9]): 24.4%
viability at 10 µM (expanded OPCs; [10]): 9.4%

CC(C)OC(=O)C(C)(C)Oc1ccc(C(=O)c2ccc(Cl)cc2)cc1 [Fenofibrate]
activation at 2 µM [1, 6]: 31.5%
activation at 10 µM [1, 7]: -62.3%
0.1 µM (% DMSO) (expanded OPCs; [11]): 85.2 % DMSO
1 µM (% DMSO) (expanded OPCs; [12]): 87.6 % DMSO
10 µM (% DMSO) (expanded OPCs; [13]): 103.9 % DMSO

CC[C@]1(O)CC[C@H]2[C@@H]3CCC4=CCCC[C@@H]4[C@H]3CC[C@@]21C [Ethylestrenol]
activation at 2 µM [1, 6]: -2.2%
activation at 10 µM [1, 7]: -45.5%
viability at 0.1 µM (expanded OPCs; [8]): 98%
viability at 1 µM (expanded OPCs; [9]): 96.1%
viability at 10 µM (expanded OPCs; [10]): 54.2%

C=CC1=C(C(=O)O)N2C(=O)[C@@H](NC(=O)/C(=N\OCC(=O)O)c3csc(N)n3)[C@H]2SC1 [Cefixime]
activation at 2 µM [1, 6]: 6.6%
activation at 10 µM [1, 7]: 63.5%
viability at 0.1 µM (expanded OPCs; [8]): 82.1%
viability at 1 µM (expanded OPCs; [9]): 68.5%
viability at 10 µM (expanded OPCs; [10]): 67.3%

COc1cc(C(=O)NS(=O)(=O)c2ccccc2C)ccc1Cc1cn(C)c2ccc(NC(=O)OC3CCCC3)cc12 [Zafirlukast]
activation at 0.4 µM [1, 20]: -24.7%
activation at 2 µM [1, 14]: -96.7%
viability at 0.1 µM (expanded OPCs; [8]): 94.9%
viability at 1 µM (expanded OPCs; [9]): 78.7%
viability at 10 µM (expanded OPCs; [10]): 41.9%

c1ccc2c(CC3=NCCN3)cccc2c1 [Naphazoline]
activation at 2 µM [1, 6]: -4.8%
activation at 10 µM [1, 7]: -45.4%
0.1 µM (% DMSO) (expanded OPCs; [11]): 92.9 % DMSO
1 µM (% DMSO) (expanded OPCs; [12]): 92.8 % DMSO
10 µM (% DMSO) (expanded OPCs; [13]): 78.6 % DMSO

O=C(O)Cc1ccccc1Nc1c(Cl)cccc1Cl [Diclofenac]
activation at 2 µM [1, 14]: 4.8%
activation at 10 µM [1, 15]: 3.4%
viability at 0.1 µM (expanded OPCs; [16]): 90.1%
viability at 1 µM (expanded OPCs; [17]): 95.5%
viability at 10 µM (expanded OPCs; [18]): 88.8%

CC[C@H](C)C(=O)O[C@H]1CCC=C2C=C[C@H](C)[C@H](CC[C@@H]3C[C@@H](O)CC(=O)O3)[C@H]21 [Mevistatin]
0.4 uM (% Quet) ([1]; test compound at 0.4 uM, NCC library screen, relative to quetiapine): -87.3 % Quet
2 uM (% Quet) [1, 2]: -111.9 % Quet
0.1 µM (% DMSO) (expanded OPCs; [3]): 135.8 % DMSO
1 µM (% DMSO) (expanded OPCs; [4]): 96.3 % DMSO
10 µM (% DMSO) (expanded OPCs; [5]): 54.8 % DMSO

CC(C)/N=c1\cc2n(-c3ccc(Cl)cc3)c3ccccc3nc-2cc1Nc1ccc(Cl)cc1 [Clofazimine]
activation at 0.08 µM [1, 21]: 0.25%
activation at 0.4 µM [1, 19]: -57.8%
viability at 0.1 µM (expanded OPCs; [8]): 89.9%
viability at 1 µM (expanded OPCs; [9]): 45.9%
viability at 10 µM (expanded OPCs; [10]): 19%

CN(C)[C@@H]1C(O)=C(C(=O)NCN2CCCC2)C(=O)[C@@]2(O)C(O)=C3C(=O)c4c(O)cccc4[C@@](C)(O)[C@H]3C[C@@H]12 [Rolitetracycline]
activation at 2 µM [1, 6]: 1.5%
activation at 10 µM [1, 7]: -11.1%
viability at 0.1 µM (expanded OPCs; [8]): 94.4%
viability at 1 µM (expanded OPCs; [9]): 92.4%
viability at 10 µM (expanded OPCs; [10]): 69.8%

Reference: PMC5011342, “A high throughput drug screening assay to identify compounds that promote oligodendrocyte differentiation using acutely dissociated and purified oligodendrocyte precursor cells” (BMC Research Notes, 2016)
